Data: patent publication US7208482B2, “9-aminoacyl tetracycline compounds and methods of use thereof” (Paratek Pharmaceuticals, Inc., priority 2001, dated 2007)
Converted amounts (≈) assume the structure as drawn.

What was measured:
Test in all cases: MIC, broth microdilution growth inhibition
Assay type in all cases: cell-based
Conditions in all cases: Mueller-Hinton broth, 5×10^5 CFU/ml, 37° C., 18 h
E. coli 1850E = tested on: E. coli 1850E
Method: (§1) Growth-inhibitory activity was determined on liquid medium by the antibiotic dilution technique using 96-well microtiter system plates containing two-fold dilutions of antibiotic-agent in 0.2 ml. of Mueller-Hinton broth. Plates were inoculated with each test organism to yield a final inoculum of 5×10^5 CFU/ml and were incubated aerobically at 37° C. for 18 h. The MIC was defined as the lowest concentration of antibacterial agent that inhibited development of visible growth in the microdilution wells.

E. hirae ATCC 9790 = tested on: E. hirae ATCC 9790
Method: as §1

H. influenzae ATCC 49247 = tested on: H. influenzae ATCC 49247
Method: as §1

[1] = tested on: M. catarrhalis ATCC 23246
Method: as §1

S. aureus ATCC 29213 = tested on: S. aureus ATCC 29213
Method: as §1

S. aureus RN4250 = tested on: S. aureus RN4250
Method: as §1

S. aureus RN450 = tested on: S. aureus RN450
Method: as §1

S. pneumoniae ATCC 49619 = tested on: S. pneumoniae ATCC 49619
Method: as §1

S. aureus ATCC 13709 = tested on: S. aureus ATCC 13709
Method: as §1

S. pneumoniae 157E = tested on: S. pneumoniae 157E
Method: as §1

E. coli ATCC 25933 = tested on: E. coli ATCC 25933
Method: as §1

| SMILES | MIC (E. coli 1850E) [µg/mL] | MIC (E. hirae ATCC 9790) [µg/mL] | MIC (H. influenzae ATCC 49247) [µg/mL] | MIC [1] [µg/mL] | MIC (S. aureus ATCC 29213) [µg/mL] | MIC (S. aureus RN4250) [µg/mL] | MIC (S. aureus RN450) [µg/mL] | MIC (S. pneumoniae ATCC 49619) [µg/mL] | MIC (S. aureus ATCC 13709) [µg/mL] | MIC (S. pneumoniae 157E) [µg/mL] | MIC (E. coli ATCC 25933) [µg/mL] |
| --- | --- | --- | --- | --- | --- | --- | --- | --- | --- | --- | --- |
| CCOC(=O)CNc1cc(N(C)C)c2c(c1O)C(=O)C1=C(O)[C@]3(O)C(=O)C(C(N)=O)=C(O)[C@@H](N(C)C)[C@@H]3C[C@@H]1C2 [Example 1, [4S-(4a,5a,12a)]-4,7-Bis(dimethylamino)-9-[(ethoxycarbonyl)methyl]amino-1,4,4a,5,5a,6,11,12a-octahydro-3,10,12,12a-tetrahydroxy-1,11-dioxo-2-naphtacenecarboxamide] | 32 (≈ 57.3 µM) | 8 (≈ 14.3 µM) | 32 (≈ 57.3 µM) | 4 (≈ 7.16 µM) | 16 (≈ 28.6 µM) | 16 (≈ 28.6 µM) | 16 (≈ 28.6 µM) | 32 (≈ 57.3 µM) | – | – | – |
| CCOC(=O)C(C)Nc1ccc2c(c1O)C(=O)C1=C(O)[C@]3(O)C(=O)C(C(N)=O)=C(O)[C@@H](N(C)C)[C@@H]3[C@@H](O)[C@@H]1[C@H]2C (stereo partly drawn) [Example 2, [4S-(4a,5,5a,6,12a)]-4-(Dimethylamino)-9-[1-(ethoxycarbonyl)ethyl]amino-1,4,4a,5,5a,6,11,12a-octahydro-3,5,10,12,12a-pentahydroxy-6-methyl-1,11-dioxo-2-naphtacenecarboxamide] | 64 (≈ 114 µM) | 0.25 (≈ 0.447 µM) | 32 (≈ 57.2 µM) | 1 (≈ 1.79 µM) | – | 2 (≈ 3.57 µM) | 0.25 (≈ 0.447 µM) | 0.5 (≈ 0.894 µM) | 0.5 (≈ 0.894 µM) | 1 (≈ 1.79 µM) | – |
| CCOC(=O)CNc1ccc2c(c1O)C(=O)C1=C(O)[C@]3(O)C(=O)C(C(N)=O)=C(O)[C@@H](N(C)C)[C@@H]3[C@@H](O)[C@@H]1[C@H]2C [Example 3, [4S-(4a,5,5a,6,12a)]-4-(Dimethylamino)-9-[(ethoxycarbonyl)methyl]amino-1,4,4a,5,5a,6,11,12a-octahydro-3,5,10,12,12a-pentahydroxy-6-methyl-1,11-dioxo-2-naphtacenecarboxamide] | 32 (≈ 58.7 µM) | 1 (≈ 1.83 µM) | 8 (≈ 14.7 µM) | 2 (≈ 3.67 µM) | – | 2 (≈ 3.67 µM) | 0.5 (≈ 0.917 µM) | 0.5 (≈ 0.917 µM) | 1 (≈ 1.83 µM) | – | – |
| C[C@H]1c2ccc(NCC(=O)N(C)C)c(O)c2C(=O)C2=C(O)[C@]3(O)C(=O)C(C(N)=O)=C(O)[C@@H](N(C)C)[C@@H]3[C@@H](O)[C@@H]21 [Example 4, [4S-(4a,5,5a,6,12a)]-4-(Dimethylamino)-9-[(N,N-dimethylaminocarbonyl)methyl]amino-1,4,4a,5,5a,6,11,12a-octahydro-3,5,10,12,12a-pentahydroxy-6-methyl-1,11-dioxo-2-naphtacenecarboxamide] | – | – | 2 (≈ 3.67 µM) | – | 0.5 (≈ 0.918 µM) | – | – | 0.06 (≈ 0.11 µM) | – | – | 2 (≈ 3.67 µM) |
